Here are results for twelve compounds from US20240116985A1, “STAPLED PEPTIDES AND METHODS THEREOF” (priority 2020, published 2024).

This series can be described thus: CHI Log D procedure. It is filed as physicochemical. The note with it: for CHI Log D: pH 7.4; for chromatographic logD: pH 7.4, CHI Log D.

With `CC(=O)N1CCC[C@]12CC=CCCCC1(CCCC=CCCCCCC[C@@](C)(C(=O)N[C@@H](Cc3ccccc3)C(=O)N[C@@H](Cc3c[nH]c4ccc(C5CC5)cc34)C(=O)N[C@@H](CCC(N)=O)C(N)=O)NC(=O)[C@H](C(C)C)NC(=O)[C@H](Cc3ccccc3)NC(=O)[C@H](C)NC(=O)[C@H](C)NC(=O)[C@H](CCC(=O)O)NC(=O)[C@H](CC(=O)O)NC1=O)NC(=O)[C@H](C)NC(=O)[C@H](CC(=O)O)NC2=O` (stereo partly drawn) [I-170, Ac-PL3-Asp-Ala-B5-Asp-Glu-Ala-Ala-Phe-Val-S8-Phe-5CpW-Gln-NH2], the “CHI Log D” value worked out at 2.138.
In the case of `CC(=O)N1CCC[C@]12CC=CCCCC1(CCCC=CCCCCCC[C@@](C)(C(=O)N[C@@H](Cc3c(F)c(F)c(F)c(F)c3F)C(=O)N[C@@H](Cc3c[nH]c4ccccc34)C(=O)N[C@@H](CCC(N)=O)C(N)=O)NC(=O)[C@H](C(C)C)NC(=O)[C@H](Cc3ccccc3)NC(=O)[C@H](C)NC(=O)[C@H](C)NC(=O)[C@H](CCC(=O)O)NC(=O)[C@H](CC(=O)O)NC1=O)NC(=O)[C@H](C)NC(=O)[C@H](CC(=O)O)NC2=O` (stereo partly drawn) [I-183, Ac-PL3-Asp-Ala-B5-Asp-Glu-Ala-Ala-Phe-Val-S8-Pff-Trp-Gln-NH2], the chromatographic logD (in general, lipophilicity estimated from chromatographic retention) is 2.21.
Still for that read-out and setting: to `CC(=O)N1CCC[C@]12CC=CCCCC1(CCCC=CCCCCCC[C@@](C)(C(=O)N[C@@H](Cc3ccccc3)C(=O)N[C@@H](Cc3c[nH]c4ccccc34)C(=O)N[C@@H](CCC(N)=O)C(N)=O)NC(=O)[C@H](C(C)C)NC(=O)[C@H](Cc3ccccc3)NC(=O)[C@H](C)NC(=O)[C@H](C)NC(=O)[C@H](CCc3ccccc3)NC(=O)[C@H](CC(=O)O)NC1=O)NC(=O)[C@H](C)NC(=O)[C@H](CC(=O)O)NC2=O` (stereo partly drawn) [I-195, Ac-PL3-Asp-Ala-B5-Asp-hPhe-Ala-Ala-Phe-Val-S8-Phe-Trp-Gln-NH2] belongs 2.98.
For the compound `CC(=O)N1CCC[C@]12CC=CCCCC1(CCCC=CCCCCCC[C@@](C)(C(=O)N[C@@H](Cc3ccccc3)C(=O)N[C@@H](Cc3c[nH]c4ccccc34)C(=O)N[C@@H](CCC(N)=O)C(N)=O)NC(=O)[C@H](C(C)C)NC(=O)[C@H](Cc3ccccc3)NC(=O)[C@H](C)NC(=O)[C@H](C)NC(=O)[C@H](CCC(=O)O)NC(=O)[C@H](CCc3ccccc3)NC1=O)NC(=O)[C@H](C)NC(=O)[C@H](CC(=O)O)NC2=O` (stereo partly drawn) [I-196, Ac-PL3-Asp-Ala-B5-hPhe-Glu-Ala-Ala-Phe-Val-S8-Phe-Trp-Gln-NH2], the “CHI Log D” value is reported as 3.711.
The compound `CC(=O)N1CCC[C@]12CC=CCCCC1(CCCC=CCCCCCC[C@@](C)(C(=O)N[C@@H](Cc3ccccc3)C(=O)N[C@@H](Cc3c[nH]c4ccccc34)C(=O)N[C@@H](CCC(N)=O)C(N)=O)NC(=O)[C@H](C(C)C)NC(=O)[C@H](Cc3ccccc3)NC(=O)[C@H](C)NC(=O)[C@H](C)NC(=O)[C@H](CCC(=O)O)NC(=O)[C@H](CC(=O)O)NC1=O)NC(=O)[C@H](C)NC(=O)[C@H](Cc1ccc(O)cc1)NC2=O` (stereo partly drawn) [I-202, Ac-PL3-Tyr-Ala-B5-Asp-Glu-Ala-Ala-Phe-Val-S8-Phe-Trp-Gln-NH2] came in with a chromatographic logD of 2.62.
In turn, `CC(=O)N1CCC[C@]12CC=CCCCC1(CCCC=CCCCCCC[C@@](C)(C(=O)N[C@@H](Cc3ccccc3)C(=O)N[C@@H](Cc3c[nH]c4ccccc34)C(=O)N[C@@H](CCC(N)=O)C(N)=O)NC(=O)[C@H](C(C)C)NC(=O)[C@H](Cc3ccccc3)NC(=O)[C@H](C)NC(=O)[C@H](C)NC(=O)[C@H](CCC(=O)O)NC(=O)[C@H](CC(=O)O)NC1=O)NC(=O)[C@H](C)NC(=O)[C@H](Cc1cccc(C)c1)NC2=O` (stereo partly drawn) [I-203, Ac-PL3-3MeF-Ala-B5-Asp-Glu-Ala-Ala-Phe-Val-S8-Phe-Trp-Gln-NH2] came in with a chromatographic logD of 3.09.
Still for that read-out and setting: to `CC(=O)N1CCC[C@]12CC=CCCCC1(CCCC=CCCCCCC[C@@](C)(C(=O)N[C@@H](Cc3ccccc3)C(=O)N[C@@H](Cc3c[nH]c4ccccc34)C(=O)N[C@@H](CCC(N)=O)C(N)=O)NC(=O)[C@H](C(C)C)NC(=O)[C@H](Cc3ccccc3)NC(=O)[C@H](C)NC(=O)[C@H](C)NC(=O)[C@H](CCC(=O)O)NC(=O)[C@H](CC(=O)O)NC1=O)NC(=O)[C@H](C)NC(=O)[C@H](Cc1cccc(F)c1)NC2=O` (stereo partly drawn) [I-204, Ac-PL3-3FF-Ala-B5-Asp-Glu-Ala-Ala-Phe-Val-S8-Phe-Trp-Gln-NH2] belongs 2.98; to `CCCC[C@@H]1NC(=O)C2(CCCC=CCCCCCC[C@@](C)(C(=O)N[C@@H](Cc3ccccc3)C(=O)N[C@@H](Cc3c[nH]c4ccccc34)C(=O)N[C@@H](CCC(N)=O)C(N)=O)NC(=O)[C@H](C(C)C)NC(=O)[C@H](Cc3ccccc3)NC(=O)[C@H](C)NC(=O)[C@H](C)NC(=O)[C@H](CCC(=O)O)NC1=O)CCCC=CC[C@]1(CCCN1C(C)=O)C(=O)N[C@@H](CC(=O)O)C(=O)N[C@@H](C)C(=O)N2` (stereo partly drawn) [I-205, Ac-PL3-Asp-Ala-B5-nLeu-Glu-Ala-Ala-Phe-Val-S8-Phe-Trp-Gln-NH2], 3.84.
`CC(=O)N1CCC[C@]12CC=CCCCC1(CCCC=CCCCCCC[C@@](C)(C(=O)N[C@@H](Cc3ccccc3)C(=O)N[C@@H](Cc3c[nH]c4ccccc34)C(=O)N[C@@H](CCC(N)=O)C(N)=O)NC(=O)[C@H](C(C)C)NC(=O)[C@H](Cc3ccccc3)NC(=O)[C@H](C)NC(=O)[C@H](C)NC(=O)[C@H](CCC(=O)O)NC(=O)[C@H](Cc3cccnc3)NC1=O)NC(=O)[C@H](C)NC(=O)[C@H](CC(=O)O)NC2=O` (stereo partly drawn) [I-213, Ac-PL3-Asp-Ala-B5-3pyrA-Glu-Ala-Ala-Phe-Val-S8-Phe-Trp-Gln-NH2] returned a chromatographic logD of 2.82.
Still for that read-out and setting: to `CC(=O)N1CCC[C@]12CC=CCCCC1(CCCC=CCCCCCC[C@@](C)(C(=O)N[C@@H](Cc3ccccc3)C(=O)N[C@@H](Cc3c[nH]c4ccccc34)C(=O)N[C@@H](CCC(N)=O)C(N)=O)NC(=O)[C@H](C(C)C)NC(=O)[C@H](Cc3ccccc3)NC(=O)[C@H](C)NC(=O)[C@H](C)NC(=O)[C@H](CCC(=O)O)NC(=O)[C@H](Cc3ccncc3)NC1=O)NC(=O)[C@H](C)NC(=O)[C@H](CC(=O)O)NC2=O` (stereo partly drawn) [I-214, Ac-PL3-Asp-Ala-B5-4pyrA-Glu-Ala-Ala-Phe-Val-S8-Phe-Trp-Gln-NH2] belongs 2.7; to `CC(=O)N1CCC[C@]12CC=CCCCC1(CCCC=CCCCCCC[C@@](C)(C(=O)N[C@@H](Cc3ccccc3)C(=O)N[C@@H](Cc3c[nH]c4ccccc34)C(=O)N[C@@H](CCC(N)=O)C(N)=O)NC(=O)[C@H](C(C)C)NC(=O)[C@H](Cc3ccccc3)NC(=O)[C@H](C)NC(=O)[C@H](C)NC(=O)[C@H](CCC(=O)O)NC(=O)[C@H](Cc3ccccn3)NC1=O)NC(=O)[C@H](C)NC(=O)[C@H](CC(=O)O)NC2=O` (stereo partly drawn) [I-230, Ac-PL3-Asp-Ala-B5-2pyrA-Glu-Ala-Ala-Phe-Val-S8-Phe-Trp-Gln-NH2], 2.98.
Same read-out and setting: to `CC(=O)N1CCC[C@]12CC=CCCCC1(CCCC=CCCCCCC[C@@](C)(C(=O)N[C@@H](Cc3ccccc3)C(=O)N[C@@H](Cc3c[nH]c4ccccc34)C(=O)N[C@@H](CCC(N)=O)C(N)=O)NC(=O)[C@H](C(C)C)NC(=O)[C@H](Cc3ccccc3)NC(=O)[C@H](C)NC(=O)[C@H](C)NC(=O)[C@H](Cc3cccc4ccccc34)NC(=O)[C@H](CC(=O)O)NC1=O)NC(=O)[C@H](C)NC(=O)[C@H](CC(=O)O)NC2=O` (stereo partly drawn) [I-234, Ac-PL3-Asp-Ala-B5-Asp-1NapA-Ala-Ala-Phe-Val-S8-Phe-Trp-Gln-NH2] belongs 3.03.
